Measurements: patent US9163021B2, “Pyrrolo[3,2-c]pyridine tropomyosin-related kinase inhibitors” (Pfizer Limited, priority 2012, dated 2015)

Molecular target: TRKA (Homo sapiens (Human), UniProt P04629)
Assay: Isolated TRK enzyme assay (HTRF KinEASE-TK), PV3144 TrkA enzyme assay
Format: biochemical
Settings: arithmetic mean where more than one reading
Procedure, shortened: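 His-tagged TrkA cytoplasmic domain preactivated with ATP 20 min, then with compound 20 min at room temperature before 1 µM final biotin-TK substrate; HTRF 665/620 nm read.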

Chain of TRKA (P04629 441-796): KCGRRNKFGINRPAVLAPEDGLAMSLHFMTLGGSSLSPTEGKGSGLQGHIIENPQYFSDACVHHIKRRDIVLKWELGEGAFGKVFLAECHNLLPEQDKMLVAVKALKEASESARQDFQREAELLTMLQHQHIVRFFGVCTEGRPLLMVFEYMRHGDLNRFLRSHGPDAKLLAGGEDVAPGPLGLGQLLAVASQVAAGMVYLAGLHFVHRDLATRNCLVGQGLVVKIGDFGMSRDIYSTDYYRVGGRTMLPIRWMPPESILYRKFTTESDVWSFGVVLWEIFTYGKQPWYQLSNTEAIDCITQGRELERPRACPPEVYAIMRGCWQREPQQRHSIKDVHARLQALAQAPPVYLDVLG

Row | SMILES | IC50 [nM]
1 | O=C(Cc1cccc(Cl)c1)Nc1cc(C(=O)c2cn(CCO)c3ccncc23)ccn1 [Example 149, 2-(3-chlorophenyl)-N-(4-{[1-(2-hydroxyethyl)-1H-pyrrolo[3,2-c]pyridin-3-yl]carbonyl}pyridin-2-yl)acetamide] | 200
2 | CC(C)(CO)n1cc(C(=O)c2cc(NC(=O)Cc3ccc(C#N)cc3)ccn2)c2cnccc21 [Example 9, 2-(4-cyanophenyl)-N-(2-{[1-(1-hydroxy-2-methylpropan-2-yl)-1H-pyrrolo[3,2-c]pyridin-3-yl]carbonyl}pyridin-4-yl)acetamide] | 97.8
3 | CC(C)n1cc(C(=O)c2ccnc(NC(=O)Cc3ccc(F)cn3)c2)c2cnccc21 [Example 81, 2-(5-fluoropyridin-2-yl)-N-(4-{[1-(propan-2-yl)-1H-pyrrolo[3,2-c]pyridin-3-yl]carbonyl}pyridin-2-yl)acetamide] | 67
4 | CC(C)n1cc(C(=O)c2cncc(NC(=O)Cc3coc(C4CC4)n3)c2)c2cnccc21 [Example 43, 2-(2-cyclopropyl-1,3-oxazol-4-yl)-N-(5-{[1-(propan-2-yl)-1H-pyrrolo[3,2-c]pyridin-3-yl]carbonyl}pyridin-3-yl)acetamide] | 118
5 | CC(CO)n1cc(C(=O)c2cncc(NC(=O)Cc3cccc(C(F)(F)F)c3)c2)c2cnccc21 (single isomer, unassigned) [Example 36, N-(5-{[1-(1-hydroxypropan-2-yl)-1H-pyrrolo[3,2-c]pyridin-3-yl]carbonyl}pyridin-3-yl)-2-[3-(trifluoromethyl)phenyl]acetamide] | 44.7
6 | CC(C)n1cc(C(=O)c2cc(NC(=O)Cc3cnn(C4CC4)c3C(F)(F)F)ccn2)c2cnccc21 [Example 56, 2-[1-cyclopropyl-5-(trifluoromethyl)-1H-pyrazol-4-yl]-N-(2-{[1-(propan-2-yl)-1H-pyrrolo[3,2-c]pyridin-3-yl]carbonyl}pyridin-4-yl)acetamide] | 177
7 | CC(C)(CO)n1cc(C(=O)c2cncc(NC(=O)Cn3ccc(C4CC4)n3)c2)c2cncc(F)c21 [Example 2, 2-(3-Cyclopropyl-pyrazol-1-yl)-N-{5-[7-fluoro-1-(2-hydroxy-1,1-dimethyl-ethyl)-1H-pyrrolo[3,2-c]pyridine-3-carbonyl]-pyridin-3-yl}-acetamide] | 5.58
8 | CC(C)n1cc(C(=O)c2cncc(NC(=O)Cc3cn(C)cn3)c2)c2cnccc21 [Example 41, 2-(1-methyl-1H-imidazol-4-yl)-N-(5-{[1-(propan-2-yl)-1H-pyrrolo[3,2-c]pyridin-3-yl]carbonyl}pyridin-3-yl)acetamide] | 3330
9 | CC(CO)n1cc(C(=O)c2cncc(NC(=O)Cn3cc(C(F)(F)F)nn3)c2)c2cnccc21 (single isomer, unassigned) [Example 59, N-(5-{[1-(1-hydroxypropan-2-yl)-1H-pyrrolo[3,2-c]pyridin-3-yl]carbonyl}pyridin-3-yl)-2-[4-(trifluoromethyl)-1H-1,2,3-triazol-1-yl]acetamide] | 63.9
10 | CC(C)n1cc(C(=O)c2cncc(NC(=O)Cc3nc(C4CC4)oc3C3CC3)c2)c2cnccc21 [Example 20, 2-(2,5-dicyclopropyl-1,3-oxazol-4-yl)-N-(5-{[1-(propan-2-yl)-1H-pyrrolo[3,2-c]pyridin-3-yl]carbonyl}pyridin-3-yl)acetamide] | 31.7
11 | Cc1nc(C)n(CC(=O)Nc2cc(C(=O)c3cn(C(C)C)c4ccncc34)ccn2)n1 [Example 112, 2-(3,5-dimethyl-1H-1,2,4-triazol-1-yl)-N-(4-{[1-(propan-2-yl)-1H-pyrrolo[3,2-c]pyridin-3-yl]carbonyl}pyridin-2-yl)acetamide] | 5110
12 | CC(C)n1cc(C(=O)c2cncc(NC(=O)Cc3ccc(F)cn3)c2)c2cnccc21 [Example 23, 2-(5-fluoropyridin-2-yl)-N-(5-{[1-(propan-2-yl)-1H-pyrrolo[3,2-c]pyridin-3-yl]carbonyl}pyridin-3-yl)acetamide] | 192
13 | CC(C)n1cc(C(=O)c2cncc(NC(=O)Cn3ccc(C4CC4)n3)c2)c2cncc(F)c21 [Example 90, 2-(3-cyclopropyl-1H-pyrazol-1-yl)-N-(5-{[7-fluoro-1-(propan-2-yl)-1H-pyrrolo[3,2-c]pyridin-3-yl]carbonyl}pyridin-3-yl)acetamide] | 19.6
14 | CC(C)n1cc(C(=O)c2cncc(NC(=O)Cc3nc(C(C)(C)C)nn3C)c2)c2cnccc21 [Example 42, 2-(3-tert-butyl-1-methyl-1H-1,2,4-triazol-5-yl)-N-(5-{[1-(propan-2-yl)-1H-pyrrolo[3,2-c]pyridin-3-yl]carbonyl}pyridin-3-yl)acetamide] | 179
15 | CC(C)n1cc(C(=O)c2cncc(NC(=O)Cc3ncccn3)c2)c2cnccc21 [Example 119, N-(5-{[1-(propan-2-yl)-1H-pyrrolo[3,2-c]pyridin-3-yl]carbonyl}pyridin-3-yl)-2-(pyrimidin-2-yl)acetamide] | 4900
16 | COCc1nc(CC(=O)Nc2cncc(C(=O)c3cn(C(C)C)c4ccncc34)c2)c(C2CC2)o1 [Example 39, 2-[5-cyclopropyl-2-(methoxymethyl)-1,3-oxazol-4-yl]-N-(5-{[1-(propan-2-yl)-1H-pyrrolo[3,2-c]pyridin-3-yl]carbonyl}pyridin-3-yl)acetamide] | 181
17 | CC(CO)n1cc(C(=O)c2cncc(NC(=O)Cn3cc(C4CC4)nn3)c2)c2cnccc21 (single isomer, unassigned) [Example 61, 2-(4-cyclopropyl-1H-1,2,3-triazol-1-yl)-N-(5-{[1-(1-hydroxypropan-2-yl)-1H-pyrrolo[3,2-c]pyridin-3-yl]carbonyl}pyridin-3-yl)acetamide] | 65.9
18 | Cc1cc(C(F)(F)F)nn1CC(=O)Nc1cncc(C(=O)c2cn(C(C)C)c3ccncc23)c1 [Example 121, 2-(5-methyl-3-(trifluoromethyl)-1H-pyrazol-1-yl]-N(5-{[1-(propan-2-yl)-1H-pyrrolo[3,2-c]pyridin-3-yl]carbonyl}pyridin-3-yl)acetamide] | 14.3
19 | CC(C)c1cn(CC(=O)Nc2cncc(C(=O)c3cn(C(C)C)c4ccncc34)c2)nn1 [Example 123] | 59.5
20 | CC(C)(CO)n1cc(C(=O)c2cncc(NC(=O)Cc3ccc(F)cn3)c2)c2cnccc21 [Example 16, 2-(5-fluoropyridin-2-yl)-N-(5-{[1-(1-hydroxy-2-methylpropan-2-yl)-1H-pyrrolo[3,2-c]pyridin-3-yl]carbonyl}pyridin-3-yl)acetamide] | 18.2
21 | COc1ccc(CC(=O)Nc2cc(C(=O)c3cn(C(C)C)c4ccncc34)ccn2)cc1 [Example 101, 2-(4-methoxyphenyl)-N-(4-{[1-(propan-2-yl)-1H-pyrrolo[3,2-c]pyridin-3-yl]carbonyl}pyridin-2-yl)acetamide] | 51.7

Second part, the compound after the results:

Row | IC50 [nM] | SMILES
22 | 15.2 | CC(CO)n1cc(C(=O)c2cncc(NC(=O)Cn3cc(C(F)(F)F)cn3)c2)c2cncc(F)c21 (single isomer, unassigned) [Example 219, N-(5-{[7-fluoro-1-(1-hydroxypropan-2-yl)-1H-pyrrolo[3,2-c]pyridin-3-yl]carbonyl}pyridin-3-yl)-2-[4-(trifluoromethyl)-1H-pyrazol-1-yl]acetamide]
23 | 9800 | CC(C)n1cc(C(=O)c2ccnc(NC(=O)Cc3nnn[nH]3)c2)c2cnccc21 [Example 187]
24 | 83.9 | Cc1cc(C(F)(F)F)nn1CC(=O)Nc1cc(C(=O)c2cn(CCO)c3ccncc23)ccn1 [Example 153, N-(4-{[1-(2-hydroxyethyl)-1H-pyrrolo[3,2-c]pyridin-3-yl]carbonyl}pyridin-2-yl)-2-[5-methyl-3-(trifluoromethyl)-1H-pyrazol-1-yl]acetamide]
25 | 8.49 | CC(C)n1cc(C(=O)c2ccnc(NC(=O)Cc3ccc(C(F)(F)F)c(F)c3)c2)c2cnccc21 [Example 172, 2-(3-fluoro-4-(trifluoromethyl)phenyl]-N-(4-{[1-(propan-2-yl)-1H-pyrrolo[3,2-c]pyridin-3-yl]carbonyl}-pyridin-2-yl)acetamide]
26 | 43.1 | CC(C)(CO)n1cc(C(=O)c2cncc(NC(=O)Cn3ccc(C(F)(F)F)n3)c2)c2cnccc21 [Example 236, N-(5-{[1-(1-hydroxy-2-methylpropan-2-yl)-1H-pyrrolo[3,2-c]pyridin-3-yl]carbonyl}pyridin-3-yl)-2-[3-(trifluoromethyl)-1H-pyrazol-1-yl]acetamide]
27 | 24.3 | CC(CO)n1cc(C(=O)c2cncc(NC(=O)Cn3cc(C(F)(F)F)cn3)c2)c2cncc(F)c21 (single isomer, unassigned) [Example 227, N-(5-{[7-fluoro-1-(1-hydroxypropan-2-yl)-1H-pyrrolo[3,2-c]pyridin-3-yl]carbonyl}pyridin-3-yl)-2-[4-(trifluoromethyl)-1H-pyrazol-1-yl]acetamide]
28 | 186 | CC(C)c1cn(CC(=O)Nc2cc(C(=O)c3cn(C4COC4)c4ccncc34)ccn2)nn1 [Example 199, N-(4-{[1-(oxetan-3-yl)-1H-pyrrolo[3,2-c]pyridin-3-yl]carbonyl}pyridin-2-yl)-2-[4-(propan-2-yl)-1H-1,2,3-triazol-1-yl]acetamide]
29 | 16.5 | CC(C)(CO)n1cc(C(=O)c2cc(NC(=O)Cn3ccc(C4CC4)n3)ccn2)c2cnccc21 [Example 234, 2-(3-cyclopropyl-1H-pyrazol-1-yl)-N-(2-{[1-(1-hydroxy-2-methylpropan-2-yl)-1H-pyrrolo[3,2-c]pyridin-3-yl]carbonyl}pyridin-4-yl)acetamide]
30 | 11.3 | CC(C)(CO)n1cc(C(=O)c2cc(NC(=O)Cc3cccc(C(F)(F)F)c3)ccn2)c2cnccc21 [Example 232, N-(2-{[1-(1-hydroxy-2-methylpropan-2-yl)-1H-pyrrolo[3,2-c]pyridin-3-yl]carbonyl}pyridin-4-yl)-2-[3-(trifluoromethyl)phenyl]acetamide]
31 | 33 | O=C(Nc1cc(C(=O)c2cn(C3COC3)c3ccncc23)ccn1)c1cccc(OC(F)(F)F)c1 [Example 205, N-(4-{[1-(oxetan-3-yl)-1H-pyrrolo[3,2-c]pyridin-3-yl]carbonyl}pyridin-2-yl)-3-(trifluoromethoxy)benzamide]
